Twelve molecules from PubChem BioAssay (NCI) can be followed below.

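96-well plates; 48 h exposure; 5 concentrations. Endpoints by linear interpolation between flanking doses. Not reached: highest tested concentration assigned. Here, GI50 denotes the concentration required for 50% inhibition of growth. TGI marks complete inhibition of growth.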 A value given as a limit tells only on which side of the number the result lay.

Common to all, as to assay: inhibition of tumour cell growth, NCI panel, 48 h
Experiment [1] relates to OVCAR-3 ovarian.
Experiment [2] concerns COLO 205 colon.
Experiment [3] deals with SNB-19 CNS.
In experiment [4] the test system is SF-539 CNS.
Experiment [5] deals with SW-620 colon.
Experiment [6] concerns UACC-62 melanoma.
Experiment [7] has as its system OVCAR-5 ovarian.
Experiment [8] relates to SN12C renal.
The test system of experiment [9] is HOP-92 NSCLC.

For the molecule `CC1=C[P+](Cc2ccccc2)(c2ccccc2)CC1` (configuration not stated), the TGI in experiment [1], in experiment [2], in [3], in [4], in experiment [5] and in experiment [6] was over 100 µM throughout. Further, the TGI in [7] and in [8] was over 100 µM throughout.
`C/C(=C(\c1ccc(OCCN2CCCCCC2)cc1)c1ccc(OC(=O)Cc2ccccc2)cc1)c1ccc(Cl)cc1`: the GI50 in [1] was 2.75 µM; in experiment [2], 2.8 µM; in experiment [3] it was 2.96 µM; in [4], 2.36 µM; in [5], 2.56 µM; in experiment [6], 2.73 µM. In addition, the GI50 in experiment [7] was 2.77 µM; in [8] it was 2.56 µM. The TGI worked out at 5.22 µM in experiment [1]; 5.56 µM in experiment [2]; 6.41 µM in [3]; 4.82 µM in experiment [4]; 5.25 µM in [5]; 5.2 µM in [6]. Also, the TGI in [7] was 6.45 µM; in experiment [8], 5.07 µM.
As to `O=C1CC(O)(c2ccccc2)C(c2ccccc2)=C1c1ccccc1` (configuration not stated), the TGI in experiment [1] was 88.2 µM; in experiment [2], 35.7 µM; in experiment [9] it was 61.3 µM; in experiment [5] it was over 100 µM; in [6], over 100 µM; in experiment [7], over 100 µM. Besides, in experiment [8], the TGI is over 100 µM.
In the case of `CCOc1ccc(NC(=O)C2=C(C)NC(C)=C(C(=O)Nc3ccc(OCC)cc3)C2c2ccccc2)cc1`, the TGI in experiment [1], in experiment [2], in experiment [3], in [9], in [4] and in experiment [5] was over 100 µM each time. The TGI in experiment [7] and in [8] was over 100 µM each time.
As for `Clc1cc2n[se]nc2cc1Cl`, the TGI in experiment [3], in experiment [4], in experiment [5], in experiment [6], in experiment [7] and in [8] was over 100 µM in each case.
With `CCC[CH2][Sn]1([CH2]CCC)[O]C(=O)c2ccc(C)cc2[O]1`, the GI50 in experiment [1] was 1.18 µM; in [2], 0.465 µM; in experiment [3], 0.32 µM; in [9], 0.326 µM; in experiment [4], 0.518 µM; in experiment [5] it was 0.174 µM. The GI50 in [6] was 0.437 µM; in experiment [7] it was 1.67 µM; in [8], 0.511 µM. For the same molecule, the TGI was found to be 2.43 µM in [1]; 1.61 µM in experiment [2]; 1.12 µM in [3]; 1.24 µM in experiment [9]; 1.73 µM in experiment [4]; 0.4 µM in [5]. Also, the figures for the TGI in experiment [6], in experiment [7] and in experiment [8] were 1.57 µM, 3.05 µM and 1.77 µM, respectively.
Consider `C=C(CN1CCN(c2cccc(C(F)(F)F)n2)CC1)c1ccc(C(=S)Nc2ccccc2N)cc1`, for which the GI50 in experiment [1] was 4.34 µM; in experiment [2] it was 3.19 µM; in [3], 4.12 µM; in [4], 5.72 µM; in [5], 4.07 µM; in experiment [6], 2.28 µM. For the same molecule, the values for the GI50 in experiment [7] and in experiment [8] were 3.67 µM and 4.64 µM, respectively. Moreover, the TGI in experiment [1] was over 100 µM; in experiment [2] it was 11.8 µM; in experiment [3], over 100 µM; in [4], over 100 µM; in [5], 72.2 µM; in experiment [6] it was 6.89 µM. The TGI in experiment [7] and in experiment [8] was over 100 µM throughout.
As to `C[n+]1ccc(-c2c3nc(c(-c4cc[n+](C)cc4)c4ccc([n-]4)c(-c4cc[n+](C)cc4)c4nc(c(-c5cc[n+](C)cc5)c5ccc2[n-]5)C=C4)C=C3)cc1.[I-].[Zn+2]`, the GI50 in [1] was 7.02 µM; in [2] it was 18.3 µM; in experiment [3] it was 19.4 µM; in experiment [4], 16.2 µM; in [5], 24.1 µM; in experiment [6], 27.5 µM. Also, the figures for the GI50 in [7] and in experiment [8] were over 100 µM and 19.7 µM, respectively. Also, the TGI in experiment [1] is 28.1 µM; in [2], 35.8 µM; in [3] it was 45.5 µM; in experiment [4], 39.9 µM; in experiment [5] it was 45.7 µM; in experiment [6] it was over 100 µM. In addition, the values for the TGI in experiment [7] and in experiment [8] were over 100 µM and 43.3 µM, respectively.
`CSCCOC(=O)C(=[N+]=[N-])c1ccc([N+](=O)[O-])cc1`: the TGI in experiment [1], in experiment [2], in experiment [3], in [4], in [5] and in [7] was over 100 µM throughout. Moreover, the TGI in experiment [8] was over 100 µM.
Turning to `NCCN1C(=O)C2C3c4ccccc4C(c4ccccc43)C2C1=O` (configuration not stated), the TGI in [1], in [2], in [3], in experiment [9], in experiment [4] and in experiment [5] was over 100 µM each time. Further, the TGI in experiment [6], in experiment [7] and in [8] was over 100 µM each time.
With `COc1cc2c(cc1OC)C(=O)Cc1ccc(OC)c(OC)c1CN(C)CC2`, the TGI is over 100 µM in experiment [1]; over 100 µM in experiment [2]; over 100 µM in [3]; 98.5 µM in experiment [9]; over 100 µM in experiment [4]; over 100 µM in experiment [5]. Also, the TGI in experiment [6], in [7] and in experiment [8] was over 100 µM each time.
`OC1C2CCC1C1C3C=CC(C3)C21` (configuration not stated): the TGI in [1], in [2], in experiment [3], in [9], in experiment [5] and in [6] was over 100 µM each time. Besides, in experiment [7], the TGI was over 100 µM.
